Assay results taken from ChEMBL document CHEMBL2073769, “Direct evidence that saquinavir is transported by multidrug resistance-associated protein (MRP1) and canalicular multispecific organic anion transporter (MRP2)” (Antimicrob Agents Chemother, 2002).

Experiments:
[1] = biological target: Multidrug resistance-associated protein 1 (Homo sapiens, UniProt P33527); assay: TP_TRANSPORTER: transepithelial transport (basal to apical) in MRP1-expressing MDCKII cells; assay type: functional, cell-based; conditions: dog, mdck-ii
[2] = biological target: ATP-binding cassette sub-family C member 2 (Homo sapiens, UniProt Q92887); assay: TP_TRANSPORTER: transepithelial transport (basal to apical) in MRP2-expressing MDCKII cells; assay type: functional, cell-based; conditions: dog, mdck-ii
Sequence of ATP-binding cassette sub-family C member 2 (Q92887 whole entry): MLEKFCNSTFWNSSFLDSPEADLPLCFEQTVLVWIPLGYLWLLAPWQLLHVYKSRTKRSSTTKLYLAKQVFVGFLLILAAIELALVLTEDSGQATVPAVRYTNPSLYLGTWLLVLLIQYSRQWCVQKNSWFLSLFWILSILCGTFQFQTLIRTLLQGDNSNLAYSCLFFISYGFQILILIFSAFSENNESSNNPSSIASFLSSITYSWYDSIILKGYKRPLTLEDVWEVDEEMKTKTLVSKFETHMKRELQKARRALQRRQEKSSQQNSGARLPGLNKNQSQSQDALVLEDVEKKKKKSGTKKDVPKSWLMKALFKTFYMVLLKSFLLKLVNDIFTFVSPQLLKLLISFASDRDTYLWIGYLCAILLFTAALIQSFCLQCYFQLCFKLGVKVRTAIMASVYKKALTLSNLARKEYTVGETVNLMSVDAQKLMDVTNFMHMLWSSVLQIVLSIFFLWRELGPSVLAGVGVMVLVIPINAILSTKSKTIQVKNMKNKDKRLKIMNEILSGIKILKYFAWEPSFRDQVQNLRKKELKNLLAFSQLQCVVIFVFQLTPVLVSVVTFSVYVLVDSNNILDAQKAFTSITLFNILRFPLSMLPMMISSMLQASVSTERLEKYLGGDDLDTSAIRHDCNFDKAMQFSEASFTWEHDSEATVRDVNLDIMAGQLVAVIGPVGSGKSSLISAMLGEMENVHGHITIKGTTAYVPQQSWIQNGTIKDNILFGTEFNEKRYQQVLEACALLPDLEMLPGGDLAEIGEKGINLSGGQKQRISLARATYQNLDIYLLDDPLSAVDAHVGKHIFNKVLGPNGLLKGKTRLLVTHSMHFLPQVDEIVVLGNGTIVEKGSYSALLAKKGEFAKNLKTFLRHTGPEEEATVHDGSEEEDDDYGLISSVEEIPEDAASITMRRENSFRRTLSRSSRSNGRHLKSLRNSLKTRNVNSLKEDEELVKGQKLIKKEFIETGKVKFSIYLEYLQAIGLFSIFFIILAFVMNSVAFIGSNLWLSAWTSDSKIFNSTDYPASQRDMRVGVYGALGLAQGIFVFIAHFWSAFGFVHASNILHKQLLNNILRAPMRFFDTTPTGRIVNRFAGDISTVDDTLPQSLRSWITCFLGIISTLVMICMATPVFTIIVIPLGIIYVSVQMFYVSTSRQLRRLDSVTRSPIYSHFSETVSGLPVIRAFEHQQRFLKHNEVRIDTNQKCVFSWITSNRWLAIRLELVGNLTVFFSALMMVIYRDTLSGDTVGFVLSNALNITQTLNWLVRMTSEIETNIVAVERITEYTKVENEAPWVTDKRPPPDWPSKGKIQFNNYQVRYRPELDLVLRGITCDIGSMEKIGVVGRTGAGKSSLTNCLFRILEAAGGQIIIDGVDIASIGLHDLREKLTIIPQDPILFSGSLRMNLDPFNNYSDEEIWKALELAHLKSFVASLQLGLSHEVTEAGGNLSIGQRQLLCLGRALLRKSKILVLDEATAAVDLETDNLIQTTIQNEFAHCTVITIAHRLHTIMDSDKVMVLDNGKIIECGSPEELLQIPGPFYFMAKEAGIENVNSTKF

Sequence of Multidrug resistance-associated protein 1 (P33527 whole entry): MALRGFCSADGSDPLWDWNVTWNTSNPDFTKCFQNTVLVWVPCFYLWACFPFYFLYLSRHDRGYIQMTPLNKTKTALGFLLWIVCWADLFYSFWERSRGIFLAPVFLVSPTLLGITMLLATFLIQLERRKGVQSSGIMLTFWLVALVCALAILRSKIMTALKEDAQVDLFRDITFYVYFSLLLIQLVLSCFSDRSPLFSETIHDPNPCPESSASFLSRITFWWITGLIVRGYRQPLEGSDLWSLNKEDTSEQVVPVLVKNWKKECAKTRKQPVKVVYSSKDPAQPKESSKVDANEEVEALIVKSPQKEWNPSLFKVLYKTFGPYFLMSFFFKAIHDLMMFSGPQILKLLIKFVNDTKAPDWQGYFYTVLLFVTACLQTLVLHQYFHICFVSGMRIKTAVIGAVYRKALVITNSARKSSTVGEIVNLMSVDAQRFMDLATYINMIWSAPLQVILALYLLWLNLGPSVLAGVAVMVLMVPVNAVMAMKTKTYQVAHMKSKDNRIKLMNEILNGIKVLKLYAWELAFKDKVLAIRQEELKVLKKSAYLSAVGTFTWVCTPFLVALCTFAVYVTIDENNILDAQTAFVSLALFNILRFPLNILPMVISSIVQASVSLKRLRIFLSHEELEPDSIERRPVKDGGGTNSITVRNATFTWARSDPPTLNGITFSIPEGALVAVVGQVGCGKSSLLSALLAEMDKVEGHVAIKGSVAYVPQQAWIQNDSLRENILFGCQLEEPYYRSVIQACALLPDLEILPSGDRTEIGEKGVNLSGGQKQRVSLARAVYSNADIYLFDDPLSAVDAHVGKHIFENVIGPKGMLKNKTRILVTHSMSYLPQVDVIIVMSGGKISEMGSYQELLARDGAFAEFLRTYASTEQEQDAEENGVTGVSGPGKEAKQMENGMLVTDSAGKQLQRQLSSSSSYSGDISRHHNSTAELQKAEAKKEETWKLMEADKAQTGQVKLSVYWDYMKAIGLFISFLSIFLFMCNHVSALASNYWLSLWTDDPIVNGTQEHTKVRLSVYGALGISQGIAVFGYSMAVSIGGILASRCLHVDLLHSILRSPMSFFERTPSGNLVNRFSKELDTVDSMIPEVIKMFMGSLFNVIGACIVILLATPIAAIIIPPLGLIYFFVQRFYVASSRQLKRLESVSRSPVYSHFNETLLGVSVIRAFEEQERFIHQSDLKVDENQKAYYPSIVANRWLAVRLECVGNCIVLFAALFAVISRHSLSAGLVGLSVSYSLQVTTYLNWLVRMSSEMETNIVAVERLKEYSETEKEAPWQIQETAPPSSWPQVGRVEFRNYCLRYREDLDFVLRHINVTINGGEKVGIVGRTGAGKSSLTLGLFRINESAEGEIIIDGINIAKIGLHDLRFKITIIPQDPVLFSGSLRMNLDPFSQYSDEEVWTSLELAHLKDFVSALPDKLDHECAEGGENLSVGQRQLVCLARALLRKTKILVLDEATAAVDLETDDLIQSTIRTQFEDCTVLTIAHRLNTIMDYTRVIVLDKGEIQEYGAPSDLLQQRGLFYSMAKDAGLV

CC(C)(C)NC(=O)[C@@H]1C[C@@H]2CCCC[C@@H]2CN1C[C@@H](O)[C@H](Cc1ccccc1)NC(=O)[C@H](CC(N)=O)NC(=O)c1ccc2ccccc2n1 [SAQUINAVIR]
Activity [1]: substrate [+]
Activity [2]: substrate [+]
